We go through 23 compounds from patent US20200031811A1, “SUBSTITUTED MONO- AND POLYAZANAPHTHALENE DERIVATIVES AND THEIR USE” (Basilea Pharmaceutica International AG, priority 2015, published 2020).

Experiment [1] concerns human pancreatic cancer cell line MiaPaCa2 (ATCC CRL-1420). The experiment in a line: Cell growth assay (CellTiterGlo, 72 hours). To be noted: for IC50: MIA PaCa-2, MiaPaCa2 cells, 72 hours, read-out: IC50 MiaPaCa. The format is cell-based. In a few lines:
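MiaPaCa2 cells (10^3/well) seeded in supplemented DMEM overnight, then exposed in quadruplicate to compound at 100 down to 0.1 μM for 72 h at 37° C. Growth read by CellTiterGlo luminescence, medium-only background subtracted, normalised to untreated cells; IC50 = concentration reducing growth to 50%.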

The next experiment addresses T1, MNK1 (Homo sapiens, UniProt Q9BUB5).
T1 construct: purchased Life Technologies or Carna Biosciences PV6023 or 02-145; host or cells: baculovirus infected insect cells
The experiment is described as follows: MNK inhibition assay (Z-Lyte kinase assay, Ser/Thr 7 peptide). The following applies: recombinant GST-MNK1, 3 hours at 31° C. Type of experiment: biochemical. In a few lines:
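Recombinant GST-MNK1 from baculovirus-infected insect cells, Z-Lyte Ser/Thr 7 peptide, enzyme set for ~30% phosphorylation in buffer-only wells; 3 hours at 31° C. Compounds at 50–10000 nM (potent ones down to 0.5 nM), at least duplicate. IC50 from % substrate phosphorylation versus buffer-only wells, fluorescence read-out.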

T1 sequence (Q9BUB5 whole entry): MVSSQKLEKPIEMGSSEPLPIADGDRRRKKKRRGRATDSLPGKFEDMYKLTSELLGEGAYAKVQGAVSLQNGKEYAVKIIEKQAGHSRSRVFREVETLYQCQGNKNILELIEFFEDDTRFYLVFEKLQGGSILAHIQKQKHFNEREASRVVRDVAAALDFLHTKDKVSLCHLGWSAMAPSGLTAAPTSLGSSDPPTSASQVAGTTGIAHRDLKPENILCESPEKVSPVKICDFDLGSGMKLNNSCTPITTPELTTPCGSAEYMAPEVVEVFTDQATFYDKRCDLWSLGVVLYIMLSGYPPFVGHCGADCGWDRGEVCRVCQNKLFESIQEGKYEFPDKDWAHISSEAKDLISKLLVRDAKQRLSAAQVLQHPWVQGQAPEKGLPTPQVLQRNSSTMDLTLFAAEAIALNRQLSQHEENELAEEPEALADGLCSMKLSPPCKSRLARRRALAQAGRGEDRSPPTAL

On to `c1coc(-c2cncc3ccc(CNc4ccnc5ccccc45)cc23)c1` [Example 208], for which the values for the concentration for half-maximal inhibition (IC50) (in experiment [1]; at MNK1) were 8170 nM and 56 nM, respectively.
The like results for `Cc1ccc(-c2cncc3ccc(CNc4ccnc5ccccc45)cc23)o1` [Example 209] were, in that order, 7500 nM and 56 nM.
The matching figures for `CN(c1ccc2cncc(-c3cc4ccccc4o3)c2c1)C1CCC(N)CC1` (stereo not shown) [Example 210]: 1760 nM and 22 nM.
The like results for `CN(c1ccc2cncc(-c3cc4ccccc4o3)c2c1)C1CCNCC1` [Example 211] were, in that order, 5570 nM and 425 nM.
For `c1ccc2oc(-c3cncc4ccc(NC5CCCNC5)cc34)cc2c1` (stereo not shown) [Example 212], the IC50 in experiment [1] was 1700 nM; at MNK1 it was 418 nM.
The matching figures for `c1ccc2oc(-c3cncc4ccc(NCC5CCNCC5)cc34)cc2c1` [Example 213]: 3480 nM and 113 nM.
For the compound `c1ccc2oc(-c3cncc4ccc(NCC5CCCNC5)cc34)cc2c1` (stereo not shown) [Example 214], the IC50 in experiment [1] came to 1420 nM; at MNK1 it was 534 nM.
The matching figures for `Nc1ncc(-c2ccc(Cl)cc2)c2cc(CN3CCC(N)CC3)ccc12` [Example 215]: 3300 nM and 473 nM.
The matching figures for `Nc1ncc(-c2cccc(Cl)c2)c2cc(CN3CCC(N)CC3)ccc12` [Example 216]: 2520 nM and 1110 nM.
In the case of `Nc1ncc(-c2ccc(Cl)c(Cl)c2)c2cc(CN3CCC(N)CC3)ccc12` [Example 217], the IC50 was determined as 3060 nM in experiment [1] and 3010 nM at MNK1.
The matching figures for `Nc1ncc(-c2cc(Cl)cc(Cl)c2)c2cc(CN3CCC(N)CC3)ccc12` [Example 218]: 2470 nM and 5720 nM.
As for `Nc1ncc(-c2ccc(F)cc2)c2cc(CN3CCC(N)CC3)ccc12` [Example 219], the IC50 came out at 5310 nM in experiment [1] and 1020 nM on MNK1.
The matching figures for `Nc1ncc(-c2cccc(F)c2)c2cc(CN3CCC(N)CC3)ccc12` [Example 220]: 4280 nM and 1470 nM.
The matching figures for `Nc1ncc(-c2ccc(F)c(F)c2)c2cc(CN3CCC(N)CC3)ccc12` [Example 221]: 5030 nM and 351 nM.
Turning to `Nc1ncc(-c2cc(F)cc(F)c2)c2cc(CN3CCC(N)CC3)ccc12` [Example 222], the IC50 in experiment [1] is 3500 nM; on MNK1, 1910 nM.
For the compound `Nc1ncc(-c2cc3ccccc3o2)c2cc(CN3CCNCC3)ccc12` [Example 223], the concentration for half-maximal inhibition (IC50) was 3940 nM in experiment [1] and 1140 nM at MNK1.
The like results for `c1ccc2oc(-c3cncc4ccc(CN5CCNCC5)cc34)cc2c1` [Example 224, 4-(Benzofuran-2-yl)-6-(piperazin-1-ylmethyl)isoquinoline] were, in that order, 11600 nM and 222 nM.
Regarding `c1coc(-c2cncc3ccc(CN4CCNCC4)cc23)c1` [Example 225], in experiment [1] (MIA PaCa-2, at 50 μM, read-out: Inhibition of MiaPaCa growth at indicated concentration), the inhibition at 50 µM was determined as 65%. For the same compound, on MNK1, the IC50 came out at 96 nM.
With `Cc1ccc(-c2cncc3ccc(CN4CCNCC4)cc23)o1` [Example 226], the IC50 in experiment [1] stood at 20400 nM; at MNK1, 229 nM.
Consider `NC1CCN(Cc2ccc3cncc(-c4nc5ccccc5s4)c3c2)CC1` [Example 227, 1-[[4-(1,3-Benzothiazol-2-yl)-6-isoquinolyl]methyl]piperidin-4-amine], for which the concentration for half-maximal inhibition (IC50) in experiment [1] amounted to 4430 nM; on MNK1, 1020 nM.
The like results for `NC1CCN(Cc2ccc3cncc(-c4nc5ccccc5o4)c3c2)CC1` [Example 228] were, in that order, 4980 nM and 483 nM.
The matching figures for `N[C@H]1CC[C@H](Nc2ccc3cncc(-c4ccccc4)c3c2)CC1` [Example 229, trans-N4-(4-phenyl-6-isoquinolyl)cyclohexane-1,4-diamine]: 4500 nM and 225 nM.
As to `N[C@H]1CC[C@H](CNc2ccc3cncc(-c4cc5ccccc5o4)c3c2)CC1` [Example 230, trans-N-[(4-Aminocyclohexyl)methyl]-4-(benzofuran-2-yl) isoquinolin-6-amine], the IC50 in experiment [1] was 6020 nM; on MNK1 it was 2190 nM.

The IC50 is the concentration needed to halve the response being measured.
